From PubChem BioAssay (NCI)
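48-hour exposure; five concentrations; linearly interpolated endpoints. At the GI50, growth is halved. At the TGI there is no net growth.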

What was measured:
Assay in all cases: DTP human tumour cell line panel, 48 h
[1] = tested on: SR leukemia
[2] = tested on: SNB-75 CNS
[3] = tested on: LOX IMVI melanoma
[4] = tested on: NCI-H226 lung
[5] = tested on: ACHN renal
[6] = tested on: KM20L2 colon
[7] = tested on: MALME-3M melanoma
[8] = tested on: NCI/ADR-RES ovarian
[9] = tested on: DMS 273 small cell lung
[10] = tested on: SN12C renal
[11] = tested on: M19-MEL melanoma
[12] = tested on: RPMI-8226 leukemia
[13] = tested on: SNB-78 CNS
[14] = tested on: A498 renal

Structure (SMILES)	TGI [1]	TGI [2]	TGI [3]	TGI [4]	TGI [5]	TGI [6]	TGI [7]	TGI [8]	TGI [9]	TGI [10]	TGI [11]	TGI [12]	TGI [13]	TGI [14]	GI50 [9]	GI50 [4]	GI50 [6]	GI50 [11]	GI50 [13]
O=C(N/N=C/c1cc(Br)cc(Br)c1[O-])c1ccccc1O.O=C(N/N=C/c1cc(Br)cc(Br)c1[O-])c1ccccc1O.[Zn+2]	4 µM	18.8 µM	13.7 µM	3.19 µM	15 µM	6.57 µM	8.77 µM												
COc1cc(C2(c3ncc[nH]3)SSSCC2O)ccc1O (configuration not stated)		> 100 µM	> 54.5 µM	> 100 µM		> 100 µM		> 62.8 µM	> 100 µM	> 100 µM	> 39.6 µM	> 100 µM	> 100 µM	> 100 µM					
CCOC(=O)/C(=N/Nc1ccccc1)N1C(=S)C=C(C)NN(C)C1=S	> 100 µM				> 100 µM			> 100 µM		> 100 µM		> 100 µM							
CC(C)C1NC(=O)CC(c2ccccc2)N(N=O)C1c1ccccc1 (configuration not stated)		> 100 µM	> 100 µM	> 100 µM		> 100 µM	> 100 µM	> 100 µM	> 100 µM	> 100 µM	> 100 µM	> 100 µM	> 100 µM	> 100 µM					
Cc1c(N=C/C=C/c2ccccc2)c(=O)n(-c2ccccc2)n1C			25 µM	38 µM	> 100 µM		62.9 µM	79.6 µM		43.4 µM		38.6 µM		87.2 µM					
C/C(=N\NC(=O)c1ccccc1O)c1cccc(/C(C)=N/NC(=O)c2ccccc2O)n1.O=S(=O)([O-])[O-].[Fe+2]	> 100 µM	> 100 µM		> 100 µM	> 100 µM	> 100 µM	> 100 µM		> 100 µM		> 100 µM		> 100 µM		46.4 µM	> 100 µM	> 100 µM	> 100 µM	> 100 µM
